# Measurements: patent US11412737B2, “Mixtures of beflubutamid or optically enriched forms thereof with a second herbicide” (FMC Corporation, priority 2016, dated 2022)
# Tests used:
# [1] = tested on: Green foxtail (SETVI); assay: pre-emergence test, weed control; assay type: in vivo, Setaria viridis; conditions: pre-emergent, 28 DAT
# Method: (§1) Test compositions containing the test compounds were diluted with water to provide the appropriate test rate concentrations.
# (§2) For pre-emergence testing, four disposable fiber flats (6 inch by 10 inch) for each rate of application of each herbicide solution were filled with top soil, to which seeds of each species were planted in furrows made by a template pressed on the top of the soil. The furrows were covered with soil after planting the seed and were watered well before application of the test compounds.
# (§3) Fiber flats designated for treatment were placed in a spray chamber having a static platform and a movable sprayer and the height of the spray nozzle was 10.5 inches above the soil level. Once the sprayer was calibrated using water for spray volume of 30 gallons per acre, flats were sprayed with sprayer at a speed to receive a coverage equivalent of 30 gallons per acre. The application rates are those shown in the Tables below for the individual herbicidal solutions and the herbicide compositions of this invention. The pre-emergence flats were immediately placed in the greenhouse and watered lightly after treatment. Thereafter they were regularly watered and fertilized for the duration of the test.
# (§4) The control of weeds was evaluated in each experimental test at 21 for wheat and 28 days after treatment (DAT) for all species. Data were analyzed using Minitab software at 95% confidence interval. The results, shown as an average of the replications, were compared with results observed in untreated control flats in the same tests. Percent control was determined by a method similar to the 0 to 100 rating system disclosed in “Research Methods in Weed Science,” 2nd ed., B. Truelove, Ed.; Southern Weed Science Society; Auburn University, Auburn, Ala., 1977. The rating system is as follows in Table 1.
# [2] = tested on: Wild oat (AVEFA); assay: pre-emergence test, weed control; assay type: in vivo, Avena fatua; conditions: pre-emergent; for percentage of weed control, AVEFA: 28 DAT; for percentage of weed control, Wild Oat AVEFA: 21 DAT, rate g ai/ha by row: r4 94, r5 125, r6 250, r7 125, r8 250, r9 500, r10 94+125, r11 125+125, r12 94+250, r13 125+250, r14 94+500, r15 125+500
# Method: as §1, §2, §3, §4
# [3] = tested on: Blackgrass (ALOMY); assay: pre-emergence test, weed control; assay type: in vivo; conditions: pre-emergent, 28 DAT
# Method: as §1, §2, §3, §4
# [4] = tested on: Yellow foxtail (SETLU); assay: pre-emergence test, weed control; assay type: in vivo; conditions: pre-emergent, 28 DAT
# Method: as §1, §2, §3, §4
# [5] = tested on: Palmer amaranth (AMAPA); assay: pre-emergence test, weed control; assay type: in vivo, Amaranthus palmeri; conditions: pre-emergent, 28 DAT, (−)-BFL >95% e.e., rate g ai/ha by row: r6 62, r7 125, r8 125, r9 250, r10 445, r11 890, r12 45, r13 90, r14 62+125, r15 125+125, r16 62+250, r17 125+250, r18 62+445, r19 125+445, r20 62+890, r21 125+890, r22 62+45, r23 125+45, r24 62+90, r25 125+90
# Method: as §1, §2, §3, §4
# [6] = tested on: crop and weed species; assay: pre-emergence test, several crop and weed species together; assay type: in vivo; conditions: pre-emergent, 28 DAT (Tables 16 and 17), >95% e.e.
# Method: as §1, §2
# Fiber flats designated for treatment were placed in a spray chamber having a static platform and a movable sprayer and the height of the spray nozzle was 10.5 inches above the soil level. Once the sprayer was calibrated using water for spray volume of 30 gallons per acre, flats were sprayed with sprayer at a speed to receive a coverage equivalent of 30 gallons per acre. […]
# The control of weeds was evaluated in each experimental test at 21 for wheat and 28 days after treatment (DAT) for all species. Data were analyzed using Minitab software at 95% confidence interval. […] Percent control was determined by a method similar to the 0 to 100 rating system disclosed in “Research Methods in Weed Science,” 2nd ed., B. Truelove, Ed.; Southern Weed Science Society; Auburn University, Auburn, Ala., 1977. […]
# [7] = tested on: Velvetleaf (ABUTH); assay: pre-emergence test, weed control; assay type: in vivo, Abutilon theophrasti; conditions: pre-emergent, 21 DAT, rate g ai/ha by row: r4 94, r5 125, r6 250, r7 125, r8 250, r9 500, r10 94+125, r11 125+125, r12 94+250, r13 125+250, r14 94+500, r15 125+500
# Method: as §1, §2, §3, §4
# [8] = tested on: velvetleaf (IPOHE); assay: pre-emergence test, weed control; assay type: in vivo; conditions: pre-emergent, 21 DAT, rate g ai/ha by row: r4 94, r5 125, r6 250, r7 125, r8 250, r9 500, r10 94+125, r11 125+125, r12 94+250, r13 125+250, r14 94+500, r15 125+500
# Method: as §1, §2, §3, §4
# [9] = tested on: Large crabgrass (DIGSA); assay: pre-emergence test, weed control; assay type: in vivo; conditions: pre-emergent, 28 DAT, rate g ai/ha by row: r4 94, r5 50, r6 100, r7 52.5, r8 70, r9 94+52.5, r10 94+70, r11 50+52.5, r12 50+70, r13 100+52.5, r14 100+70
# Method: as §1, §2, §3, §4
# [10] = tested on: Common lambsquarters (CHEAL); assay: pre-emergence test, weed control; assay type: in vivo, Chenopodium album; conditions: pre-emergent, 28 DAT, (+)-BFL >95% e.e.; rate g ai/ha by row: r6 62.5, r7 125, r8 62.5, r9 125, r10 222, r11 445, r12 22.5, r13 45, r14 62.5+62.5, r15 125+62.5, r16 62.5+125, r17 125+125, r18 62.5+222, r19 125+222, r20 62.5+445, r21 125+445, r22 62.5+22.5, r23 125+22.5, r24 62.5+45, r25 125+45
# Method: as §1, §2, §3, §4
# [11] = tested on: Jimsonweed (DATST); assay: pre-emergence test, weed control; assay type: in vivo, Datura stramonium; conditions: pre-emergent, 28 DAT; BFL at 62.5 g, PTX at 90 g, combination of both
# Method: as §1, §2, §3, §4
# [12] = tested on: Green foxtail (SETVI); assay: post-emergence test, weed control; assay type: in vivo, Setaria viridis; conditions: post-emergent, 28 DAT; BFL at 187.5 g, PTX at 890 g, combination of both
# Method: as §1
# For post-emergence testing, seeds of each species for each rate of application of each herbicide solution were planted in 7.5 cm×7.5 cm plastic pots filled with potting soil. The seeds were germinated and the resulting plants were allowed to grow in a greenhouse until they reached a growth stage, such as height, suitable for testing. Treatments were applied using compressed air in a track spray chamber at 30 gallons/acre (280 L/ha) using a TeeJet 8001E nozzle at 40 psi (2.76 bars). Pots of post-emergent treated plants were returned to the greenhouse and not watered for 24 hours after treatment. Thereafter they were regularly watered and fertilized for the duration of the test.
# as §4
# [13] = (−)-BFL >95% e.e., rate g ai/ha by row: r6 62, r7 125, r8 125, r9 250, r10 445, r11 890, r12 45, r13 90, r14 62+125, r15 125+125, r16 62+250, r17 125+250, r18 62+445, r19 125+445, r20 62+890, r21 125+890, r22 62+45, r23 125+45, r24 62+90, r25 125+90, 62 g ai/ha
# [14] = (−)-BFL >95% e.e., rate g ai/ha by row: r6 62, r7 125, r8 125, r9 250, r10 445, r11 890, r12 45, r13 90, r14 62+125, r15 125+125, r16 62+250, r17 125+250, r18 62+445, r19 125+445, r20 62+890, r21 125+890, r22 62+45, r23 125+45, r24 62+90, r25 125+90, 125 g ai/ha
# [15] = (+)-BFL >95% e.e., rate g ai/ha by row: r6 62.5, r7 125, r8 62.5, r9 125, r10 222, r11 445, r12 22.5, r13 45, r14 62.5+62.5, r15 125+62.5, r16 62.5+125, r17 125+125, r18 62.5+222, r19 125+222, r20 62.5+445, r21 125+445, r22 62.5+22.5, r23 125+22.5, r24 62.5+45, r25 125+45
# [16] = (−)-BFL >95% e.e., rate g ai/ha by row: r6 62, r7 125, r8 125, r9 250, r10 445, r11 890, r12 45, r13 90, r14 62+125, r15 125+125, r16 62+250, r17 125+250, r18 62+445, r19 125+445, r20 62+890, r21 125+890, r22 62+45, r23 125+45, r24 62+90, r25 125+90, 445 g ai/ha
# [17] = (−)-BFL >95% e.e., rate g ai/ha by row: r6 62, r7 125, r8 125, r9 250, r10 445, r11 890, r12 45, r13 90, r14 62+125, r15 125+125, r16 62+250, r17 125+250, r18 62+445, r19 125+445, r20 62+890, r21 125+890, r22 62+45, r23 125+45, r24 62+90, r25 125+90, 890 g ai/ha
# [18] = (+)-BFL >95% e.e., rate g ai/ha by row: r6 62.5, r7 125, r8 62.5, r9 125, r10 222, r11 445, r12 22.5, r13 45, r14 62.5+62.5, r15 125+62.5, r16 62.5+125, r17 125+125, r18 62.5+222, r19 125+222, r20 62.5+445, r21 125+445, r22 62.5+22.5, r23 125+22.5, r24 62.5+45, r25 125+45, 222 g ai/ha
# [19] = (+)-BFL >95% e.e., rate g ai/ha by row: r6 62.5, r7 125, r8 62.5, r9 125, r10 222, r11 445, r12 22.5, r13 45, r14 62.5+62.5, r15 125+62.5, r16 62.5+125, r17 125+125, r18 62.5+222, r19 125+222, r20 62.5+445, r21 125+445, r22 62.5+22.5, r23 125+22.5, r24 62.5+45, r25 125+45, 445 g ai/ha
smiles,measurement,setting,value
"CC[C@H](Oc1ccc(F)c(C(F)(F)F)c1)C(=O)NCc1ccccc1 [(−)-BFL, (2S)-2-[4-fluoro-3-(trifluoromethyl)phenoxy]-N-(phenylmethyl)butanamide]","percentage of weed control, SETVI",[1]; [13],80%
same,"percentage of weed control, SETVI",[1]; [14],97%
same,"percentage of weed control, AVEFA",[2]; [13],7%
same,"percentage of weed control, AVEFA",[2]; [14],11%
same,"percentage of weed control, ALOMY",[3]; [13],19%
same,"percentage of weed control, ALOMY",[3]; [14],32%
same,"percentage of weed control, SETLU",[4]; [13],86%
same,"percentage of weed control, SETLU",[4]; [14],100%
same,"percentage of weed control, AMAPA",[5]; 62 g ai/ha,70%
same,"percentage of weed control, AMAPA",[5]; 125 g ai/ha,97%
same,herbicidal activity of the enantiomers compared,[6],the more active enantiomer
CCOCN(C(=O)CCl)c1c(C)cccc1CC [Acetochlor],"percentage of weed control, Wild Oat AVEFA",[2]; 125 g ai/ha,13%
same,"percentage of weed control, Wild Oat AVEFA",[2]; 250 g ai/ha,11%
same,"percentage of weed control, Velvetleaf ABUTH",[7]; 125 g ai/ha,10%
same,"percentage of weed control, Velvetleaf ABUTH",[7]; 250 g ai/ha,11%
same,"percentage of weed control, Morningglory IPOHE",[8]; 125 g ai/ha,5%
same,"percentage of weed control, Morningglory IPOHE",[8]; 250 g ai/ha,6%
same,"percentage of weed control, Morningglory IPOHE",[8]; 500 g ai/ha,8%
O=C(Nc1ccc(F)cc1F)c1cccnc1Oc1cccc(C(F)(F)F)c1 [Diflufenican],"percentage of weed control, DIGSA",[9]; 50 g ai/ha,18%
same,"percentage of weed control, DIGSA",[9]; 100 g ai/ha,30%
"CCOCCN(C(=O)CCl)C(=C(C)C)c1ccccc1 [PTX, Pethoxamid]","percentage of weed control, CHEAL",[10],100%
same,"percentage of weed control, SETVI",[1]; [15],99%
same,"percentage of weed control, SETVI",[1]; [16],98%
same,"percentage of weed control, SETVI",[1]; [17],100%
same,control of jimsonweed,[11],4%
same,"percentage of weed control, AVEFA",[2]; [18],84%
same,"percentage of weed control, AVEFA",[2]; [19],92%
same,"percentage of weed control, AVEFA",[2]; [16],89%
same,"percentage of weed control, AVEFA",[2]; [17],92%
same,"percentage of weed control, ALOMY",[3]; [18],70%
same,"percentage of weed control, ALOMY",[3]; [19],96%
same,"percentage of weed control, ALOMY",[3]; [16],59%
same,"percentage of weed control, ALOMY",[3]; [17],83%
same,"percentage of weed control, SETLU",[4]; [15],99%
same,"percentage of weed control, SETLU",[4]; [16],99%
same,"percentage of weed control, SETLU",[4]; [17],100%
same,"percentage of weed control, AMAPA",[5]; 445 g ai/ha,98%
same,"percentage of weed control, AMAPA",[5]; 890 g ai/ha,100%
same,control of green foxtail,[12],4%
